Measurements: PubChem BioAssay (NCI)
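1) Cells in 96-well plates. 2) Compound, 48 h, 5 concentrations. 3) Linear interpolation between surrounding doses. 4) Unreached endpoint = highest concentration. GI50 marks 50% less growth. TGI: total growth inhibition.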

Experiments:
Assay in all cases: NCI-60 cell line screen, 48 h
786-0 renal = tested on: 786-0 renal
A498 renal = tested on: A498 renal
A549 NSCLC = tested on: A549 NSCLC
ACHN renal = tested on: ACHN renal
BT-549 breast = tested on: BT-549 breast
CAKI-1 renal = tested on: CAKI-1 renal
COLO 205 colon = tested on: COLO 205 colon
DU-145 prostate = tested on: DU-145 prostate
EKVX NSCLC = tested on: EKVX NSCLC
HCC-2998 colon = tested on: HCC-2998 colon
HCT-116 colon = tested on: HCT-116 colon
HCT-15 colon = tested on: HCT-15 colon
HL-60(TB) leukemia = tested on: HL-60(TB) leukemia
HOP-62 NSCLC = tested on: HOP-62 NSCLC
HOP-92 NSCLC = tested on: HOP-92 NSCLC
HS 578T breast = tested on: HS 578T breast
HT29 colon = tested on: HT29 colon
IGROV1 ovarian = tested on: IGROV1 ovarian
K-562 leukemia = tested on: K-562 leukemia
KM12 colon = tested on: KM12 colon
LOX IMVI melanoma = tested on: LOX IMVI melanoma
M14 melanoma = tested on: M14 melanoma
MALME-3M melanoma = tested on: MALME-3M melanoma
MDA-MB-231 breast = tested on: MDA-MB-231 breast
MDA-MB-435 = tested on: MDA-MB-435
MOLT-4 leukemia = tested on: MOLT-4 leukemia
NCI-H226 lung = tested on: NCI-H226 lung
NCI-H23 lung = tested on: NCI-H23 lung
NCI-H460 lung = tested on: NCI-H460 lung
NCI-H522 lung = tested on: NCI-H522 lung
NCI/ADR-RES ovarian = tested on: NCI/ADR-RES ovarian
OVCAR-4 ovarian = tested on: OVCAR-4 ovarian
OVCAR-5 ovarian = tested on: OVCAR-5 ovarian
OVCAR-8 ovarian = tested on: OVCAR-8 ovarian
PC-3 prostate = tested on: PC-3 prostate
RPMI-8226 leukemia = tested on: RPMI-8226 leukemia
RXF 393 renal = tested on: RXF 393 renal
SF-268 CNS = tested on: SF-268 CNS
SF-295 CNS = tested on: SF-295 CNS
SF-539 CNS = tested on: SF-539 CNS
SK-MEL-2 melanoma = tested on: SK-MEL-2 melanoma
SK-MEL-28 melanoma = tested on: SK-MEL-28 melanoma
SK-MEL-5 melanoma = tested on: SK-MEL-5 melanoma
SK-OV-3 ovarian = tested on: SK-OV-3 ovarian
SN12C renal = tested on: SN12C renal
SNB-19 CNS = tested on: SNB-19 CNS
SNB-75 CNS = tested on: SNB-75 CNS
SR leukemia = tested on: SR leukemia
SW-620 colon = tested on: SW-620 colon
TK-10 renal = tested on: TK-10 renal
U251 CNS = tested on: U251 CNS
UACC-257 melanoma = tested on: UACC-257 melanoma
UACC-62 melanoma = tested on: UACC-62 melanoma
UO-31 renal = tested on: UO-31 renal

CCc1ccc(SC2c3ccc(N(CC)CC)cc3Oc3nc(N)c(C#N)c(N)c32)cc1 (stereo not drawn)
GI50 (786-0 renal): 1740 nM | TGI (786-0 renal): 3170 nM | GI50 (A498 renal): 1630 nM | TGI (A498 renal): 3010 nM | GI50 (A549 NSCLC): 1810 nM | TGI (A549 NSCLC): 3320 nM | GI50 (ACHN renal): 1670 nM | TGI (ACHN renal): 3040 nM | GI50 (BT-549 breast): 1300 nM | TGI (BT-549 breast): 2590 nM | GI50 (CAKI-1 renal): 1630 nM | TGI (CAKI-1 renal): 3000 nM | GI50 (COLO 205 colon): 1920 nM | TGI (COLO 205 colon): 3510 nM | GI50 (DU-145 prostate): 1860 nM | TGI (DU-145 prostate): 3260 nM | GI50 (EKVX NSCLC): 710 nM | TGI (EKVX NSCLC): 2070 nM | GI50 (HCC-2998 colon): 1860 nM | TGI (HCC-2998 colon): 3390 nM | GI50 (HCT-116 colon): 1130 nM | TGI (HCT-116 colon): 2490 nM | GI50 (HCT-15 colon): 1620 nM | TGI (HCT-15 colon): 3340 nM | GI50 (HL-60(TB) leukemia): 2590 nM | TGI (HL-60(TB) leukemia): 8340 nM | GI50 (HOP-62 NSCLC): 1830 nM | TGI (HOP-62 NSCLC): 3330 nM | GI50 (HOP-92 NSCLC): 1480 nM | TGI (HOP-92 NSCLC): 2840 nM | GI50 (HS 578T breast): 1760 nM | TGI (HS 578T breast): 4850 nM | GI50 (HT29 colon): 2030 nM | TGI (HT29 colon): 3760 nM | GI50 (IGROV1 ovarian): 1440 nM | TGI (IGROV1 ovarian): 2890 nM | GI50 (K-562 leukemia): 3120 nM | TGI (K-562 leukemia): > 100000 nM | GI50 (KM12 colon): 1580 nM | TGI (KM12 colon): 3030 nM | GI50 (LOX IMVI melanoma): 671 nM | TGI (LOX IMVI melanoma): 1970 nM | GI50 (M14 melanoma): 1450 nM | TGI (M14 melanoma): 2830 nM | GI50 (MALME-3M melanoma): 1750 nM | TGI (MALME-3M melanoma): 3160 nM | GI50 (MDA-MB-231 breast): 1630 nM | TGI (MDA-MB-231 breast): 3040 nM | GI50 (MDA-MB-435): 1680 nM | TGI (MDA-MB-435): 3100 nM | GI50 (MOLT-4 leukemia): 2190 nM | TGI (MOLT-4 leukemia): > 100000 nM | GI50 (NCI-H226 lung): 2010 nM | TGI (NCI-H226 lung): 4520 nM | GI50 (NCI-H23 lung): 1530 nM | TGI (NCI-H23 lung): 3030 nM | GI50 (NCI-H460 lung): 1840 nM | TGI (NCI-H460 lung): 3550 nM | GI50 (NCI-H522 lung): 1780 nM | TGI (NCI-H522 lung): 3280 nM | GI50 (NCI/ADR-RES ovarian): 2090 nM | TGI (NCI/ADR-RES ovarian): 4960 nM | GI50 (OVCAR-4 ovarian): 1700 nM | TGI (OVCAR-4 ovarian): 3090 nM | GI50 (OVCAR-5 ovarian): 1800 nM | TGI (OVCAR-5 ovarian): 3240 nM | GI50 (OVCAR-8 ovarian): 1710 nM | TGI (OVCAR-8 ovarian): 3130 nM | GI50 (PC-3 prostate): 1410 nM | TGI (PC-3 prostate): 2900 nM | GI50 (RPMI-8226 leukemia): 2180 nM | TGI (RPMI-8226 leukemia): 6080 nM | GI50 (RXF 393 renal): 1580 nM | TGI (RXF 393 renal): 2960 nM | GI50 (SF-268 CNS): 1760 nM | TGI (SF-268 CNS): 3270 nM | GI50 (SF-295 CNS): 1760 nM | TGI (SF-295 CNS): 3200 nM | GI50 (SF-539 CNS): 1660 nM | TGI (SF-539 CNS): 3050 nM | GI50 (SK-MEL-2 melanoma): 1740 nM | TGI (SK-MEL-2 melanoma): 3170 nM | GI50 (SK-MEL-28 melanoma): 1890 nM | TGI (SK-MEL-28 melanoma): 3310 nM | GI50 (SK-MEL-5 melanoma): 1770 nM | TGI (SK-MEL-5 melanoma): 3170 nM | GI50 (SK-OV-3 ovarian): 1890 nM | TGI (SK-OV-3 ovarian): 3340 nM | GI50 (SN12C renal): 1680 nM | TGI (SN12C renal): 3130 nM | GI50 (SNB-19 CNS): 1690 nM | TGI (SNB-19 CNS): 3080 nM | GI50 (SNB-75 CNS): 1500 nM | TGI (SNB-75 CNS): 2830 nM | GI50 (SR leukemia): 482 nM | TGI (SR leukemia): > 100000 nM | GI50 (SW-620 colon): 1880 nM | TGI (SW-620 colon): 3510 nM | GI50 (TK-10 renal): 2750 nM | TGI (TK-10 renal): 4260 nM | GI50 (U251 CNS): 1440 nM | TGI (U251 CNS): 2820 nM | GI50 (UACC-257 melanoma): 1840 nM | TGI (UACC-257 melanoma): 3280 nM | GI50 (UACC-62 melanoma): 1700 nM | TGI (UACC-62 melanoma): 3130 nM | GI50 (UO-31 renal): 1450 nM | TGI (UO-31 renal): 2760 nM
